Results published in patent US11702400B2, “Salt types, crystal forms, and preparation methods for benzopyrazole compounds as RHO kinase inhibitors” (MEDSHINE DISCOVERY INC., priority 2019, dated 2023).
pIC50: −log10 of the molar value. One block for each compound: values may come before it.

Experiments:
[1] = Solid stability test of the crystal form B of the compound of formula (II-2) (XRPD); assay type: physicochemical
Description: About 10 mg of the crystal form was accurately weighed and added to a dry and clean glass flask, spread into a thin layer, covered with aluminum foil, pierced small holes and placed under the influence factor test conditions and under accelerated conditions. Samples placed under illumination (visible light 1200000 Lux, UV 200 W) conditions were placed in clear glass flasks, fully exposed, and samples used for XRPD detection were placed separately.
After the samples were removed at the time point, the cover was covered, and the flask was sealed using sealing film, and stored in −20° C. refrigerator. When preparing the sample, the sample was removed from the refrigerator, restored to room temperature; 80% ACN (10 mL) was added, and the sample was dissolved by sonication for 2 min to obtain a solution with a concentration of about 1 mg/mL, then the liquid phase was used for injection analysis, and the detection results were compared with the initial detection results on day 0.
Preparation of standard solution on day 0: About 10 mg of the crystal form was weighed and added to a 10 mL volumetric flask, dissolved with 80% ACN and the volume was fixed to the scale.

[2] = Pharmacokinetic study of the racemate of the compound of formula (I) in SD rats; assay type: in vivo
Description: 2.1 Pharmacokinetic Study of the Racemate of the Compound of Formula (I) in SD Rats
Experimental purpose: To study the pharmacokinetics of the compounds in SD rats
Experimental material: SD rats (male, 7-10 weeks old, WTLH/SLAC)
Experimental procedure: The pharmacokinetic characteristics of the compounds were tested in rodents after intravenous (IV) and oral (PO) administration using standard protocols. The candidate compounds were prepared into 0.2 mg/mL clarified solutions and administrated to rats for single intravenous injection and oral administration. The solvent for both intravenous and oral administration was 5% DMSO/95% (10% hydroxypropyl β-cyclodextrin) aqueous solution. […] Whole blood samples were collected within 24 hours, centrifuged at 3000 g for 15 minutes, and the supernatant was separated to obtain plasma samples, and the proteins were precipitated by adding acetonitrile solution containing internal standard; the mixture was well mixed and centrifuged, and the supernatant was injected for quantitative analysis of plasma drug concentrations by LC-MS/MS analysis method, and pharmacokinetic parameters were calculated, such as peak concentration (Cmax), clearance rate (CL), half-life (T1/2), […] (Vdss), area under the drug-time curve (AUC0-last), bioavailability (F), etc.

ROCK1 = ROCK1 (Homo sapiens, UniProt Q13464); experiment: In vitro evaluation of ROCK protein kinase inhibitory activity (33P-ATP filter-binding), ROCK1; assay type: biochemical; settings: 1 nM kinase, 20 μM Long S6 Kinase substrate peptide, 2 hours room temperature
Description: (§1) 1. In Vitro Evaluation of ROCK Protein Kinase Inhibitory Activity
(§2) Experimental purpose: To detect the IC50 value of ROCK protein kinase inhibition of compounds.
(§3) Experimental materials: assay buffer solution: 20 mM 4-hydroxyethyl piperazine ethanesulfonic acid (pH 7.5), 10 mM magnesium chloride, 1 mM ethylene glycol diethyl ether diaminetetraacetic acid, 0.02% polyoxyethylene lauryl ether, 0.02 mg/mL bovine serum albumin, 0.1 mM sodium vanadate, 2 mM dithiothreitol, 1% DMSO.
Experimental operation: ROCK protein kinase substrate Long S6 Kinase substrate peptide was added to a freshly prepared buffer solution at a concentration of 20 μM, then 1 nM ROCK protein kinase was added, and the mixture was stirred evenly. A series of DMSO diluents containing the compounds to be tested were added with Echo550 (started at […], diluted by 3 times series), preincubated at room temperature for 20 minutes, and ^33P-ATP (radiation intensity 10 μCi/μL) was added to initiate the reaction, and the reaction was carried out for 2 hours at room temperature. […] Radiation intensity was detected using the Filter-Binding method.
(§4) The protein kinase inhibitory activity of the compound was expressed as the residual protein kinase activity relative to the blank substrate (DMSO alone). IC50 values and curves were calculated using the Prism software package (GraphPad Software, San Diego Calif., USA).

ROCK2 = ROCK2 (Homo sapiens, UniProt O75116); experiment: In vitro evaluation of ROCK protein kinase inhibitory activity (33P-ATP filter-binding), ROCK2; assay type: biochemical
Description: as §1, §2, §3
Experimental operation: ROCK protein kinase substrate Long S6 Kinase substrate peptide was added to a freshly prepared buffer solution at a concentration of 20 μM, then 1 nM ROCK protein kinase was added, and the mixture was stirred evenly. A series of DMSO diluents containing the compounds to be tested were added with Echo550 (started at […], diluted by 3 times series), preincubated at room temperature for 20 minutes, and ^33P-ATP (radiation intensity 10 μCi/μL) was added to initiate the reaction, and the reaction was carried out for 2 hours at room temperature. The mixture was then filtered using P81 ion exchange paper (Whatman #3698-915) and washed with 0.75% phosphoric acid. Radiation intensity was detected using the Filter-Binding method.
as §4

Sequence of ROCK2 (O75116 whole entry): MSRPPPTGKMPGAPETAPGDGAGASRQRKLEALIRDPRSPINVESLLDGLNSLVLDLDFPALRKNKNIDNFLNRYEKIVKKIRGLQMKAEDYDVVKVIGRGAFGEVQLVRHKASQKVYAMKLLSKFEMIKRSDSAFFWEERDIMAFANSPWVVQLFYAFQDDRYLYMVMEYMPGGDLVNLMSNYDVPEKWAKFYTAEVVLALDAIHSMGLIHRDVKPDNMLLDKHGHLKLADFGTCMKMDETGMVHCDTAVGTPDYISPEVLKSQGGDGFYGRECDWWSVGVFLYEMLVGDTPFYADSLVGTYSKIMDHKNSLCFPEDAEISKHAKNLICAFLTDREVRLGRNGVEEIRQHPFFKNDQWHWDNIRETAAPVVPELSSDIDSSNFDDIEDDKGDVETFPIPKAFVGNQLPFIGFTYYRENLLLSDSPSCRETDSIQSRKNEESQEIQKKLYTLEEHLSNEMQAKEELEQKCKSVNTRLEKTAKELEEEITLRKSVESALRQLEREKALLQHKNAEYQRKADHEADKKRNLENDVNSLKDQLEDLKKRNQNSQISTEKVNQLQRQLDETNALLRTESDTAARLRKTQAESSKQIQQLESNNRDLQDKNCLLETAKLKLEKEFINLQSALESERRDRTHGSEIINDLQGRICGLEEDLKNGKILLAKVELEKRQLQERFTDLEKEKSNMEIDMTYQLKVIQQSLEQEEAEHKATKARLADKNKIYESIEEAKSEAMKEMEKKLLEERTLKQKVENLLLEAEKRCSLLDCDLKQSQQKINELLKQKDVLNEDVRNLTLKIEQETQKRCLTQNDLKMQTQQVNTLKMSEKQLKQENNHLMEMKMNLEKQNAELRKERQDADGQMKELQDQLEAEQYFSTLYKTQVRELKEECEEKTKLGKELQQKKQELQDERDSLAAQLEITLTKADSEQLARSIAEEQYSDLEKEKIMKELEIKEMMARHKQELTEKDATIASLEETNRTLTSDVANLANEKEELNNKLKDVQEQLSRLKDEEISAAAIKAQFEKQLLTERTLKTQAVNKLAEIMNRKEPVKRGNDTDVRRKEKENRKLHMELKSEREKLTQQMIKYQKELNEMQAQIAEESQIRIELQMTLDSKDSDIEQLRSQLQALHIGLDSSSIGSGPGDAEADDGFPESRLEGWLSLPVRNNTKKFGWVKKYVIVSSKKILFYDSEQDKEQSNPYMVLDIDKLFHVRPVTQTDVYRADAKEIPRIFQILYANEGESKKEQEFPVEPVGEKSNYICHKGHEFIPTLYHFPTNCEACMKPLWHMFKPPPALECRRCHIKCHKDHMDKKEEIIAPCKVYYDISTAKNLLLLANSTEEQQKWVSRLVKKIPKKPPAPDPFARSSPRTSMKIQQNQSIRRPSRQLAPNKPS
Sequence of ROCK1 (Q13464 whole entry): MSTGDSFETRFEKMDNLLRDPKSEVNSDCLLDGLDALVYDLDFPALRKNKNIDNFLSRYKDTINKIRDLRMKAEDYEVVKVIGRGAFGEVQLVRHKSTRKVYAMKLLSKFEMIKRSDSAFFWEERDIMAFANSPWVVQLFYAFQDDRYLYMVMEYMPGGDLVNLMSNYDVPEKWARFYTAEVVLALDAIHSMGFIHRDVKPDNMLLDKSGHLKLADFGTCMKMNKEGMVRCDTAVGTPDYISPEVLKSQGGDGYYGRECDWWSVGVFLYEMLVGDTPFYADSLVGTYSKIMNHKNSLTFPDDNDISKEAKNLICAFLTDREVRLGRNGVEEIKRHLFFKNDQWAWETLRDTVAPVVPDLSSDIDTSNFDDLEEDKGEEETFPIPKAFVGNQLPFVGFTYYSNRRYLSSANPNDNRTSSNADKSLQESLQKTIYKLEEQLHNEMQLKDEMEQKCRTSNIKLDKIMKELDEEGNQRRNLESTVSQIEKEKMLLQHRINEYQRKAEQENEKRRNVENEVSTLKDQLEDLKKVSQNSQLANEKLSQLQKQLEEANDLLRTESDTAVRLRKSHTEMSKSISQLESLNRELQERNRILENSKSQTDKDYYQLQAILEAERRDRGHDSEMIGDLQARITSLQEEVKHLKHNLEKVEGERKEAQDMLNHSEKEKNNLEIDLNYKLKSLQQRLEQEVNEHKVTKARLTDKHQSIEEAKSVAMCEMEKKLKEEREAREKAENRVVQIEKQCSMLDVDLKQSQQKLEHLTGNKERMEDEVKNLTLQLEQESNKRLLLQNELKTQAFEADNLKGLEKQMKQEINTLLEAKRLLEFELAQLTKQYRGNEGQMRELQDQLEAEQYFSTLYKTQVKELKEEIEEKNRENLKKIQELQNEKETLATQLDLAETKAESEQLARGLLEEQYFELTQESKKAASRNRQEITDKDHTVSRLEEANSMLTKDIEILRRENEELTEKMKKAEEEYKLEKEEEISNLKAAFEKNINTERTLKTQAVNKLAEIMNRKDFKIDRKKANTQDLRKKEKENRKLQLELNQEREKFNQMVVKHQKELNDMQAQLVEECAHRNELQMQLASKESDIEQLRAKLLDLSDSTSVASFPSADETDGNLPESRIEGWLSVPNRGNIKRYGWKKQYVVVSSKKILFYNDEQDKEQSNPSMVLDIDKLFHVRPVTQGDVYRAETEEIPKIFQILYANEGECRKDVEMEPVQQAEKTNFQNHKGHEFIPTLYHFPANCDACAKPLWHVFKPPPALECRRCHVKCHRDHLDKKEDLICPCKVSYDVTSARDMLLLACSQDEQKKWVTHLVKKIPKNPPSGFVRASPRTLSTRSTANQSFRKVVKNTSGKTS

Crystal form ([1]; 0 day): Crystal form B
Crystal form ([1]; High humidity (relative humidity 75%, open), 5 days): Crystal form B
Crystal form ([1]; High humidity (relative humidity 75%, open), 10 days): Crystal form B
Crystal form ([1]; High humidity (relative humidity 92.5%, open), 5 days): Crystal form B
Crystal form ([1]; High humidity (relative humidity 92.5%, open), 10 days): Crystal form B
Crystal form ([1]; High temperature (60° C., open), 5 days): Crystal form B
Crystal form ([1]; High temperature (60° C., open), 10 days): Crystal form B
Crystal form ([1]; High temperature and humidity (40° C. relative humidity 75%, open), first entry, 5 days): Crystal form B
Crystal form ([1]; High temperature and humidity (40° C. relative humidity 75%, open), first entry, 10 days): Crystal form B
Crystal form ([1]; High temperature and humidity (40° C. relative humidity 75%, open), second entry, 5 days): Crystal form B
Crystal form ([1]; High temperature and humidity (40° C. relative humidity 75%, open), second entry, 10 days): Crystal form B
Crystal form ([1]; Illumination (total illuminance = 1.2 × 10^6 Lux·hr/near UV = 200 w·hr/m^2, open), 5 days): Crystal form B
Crystal form ([1]; Illumination (total illuminance = 1.2 × 10^6 Lux·hr/near UV = 200 w·hr/m^2, open), 10 days): Crystal form B
solid stability (conclusion in words) ([1]; high temperature, high humidity and strong illumination conditions): good stability
SMILES: CC(=O)O.COc1cccc(C(CN)NC(=O)c2cc(-c3ccc4[nH]nc(C)c4c3)ccn2)c1 (centres unmarked)

pharmacokinetic properties (conclusion in words) [2]: good pharmacokinetic properties
Vd ([2]; rat, plasma, male, IV 1 mg/kg, read-out: Tissue distribution Vdss): 6 L/kg
SMILES: COc1cccc(C(CN)NC(=O)c2cc(-c3ccc4[nH]nc(C)c4c3)ccn2)c1 (racemic) [Racemate of compound of formula (I)]

pIC50 (ROCK1): 7.89
inhibitory activity against ROCK2 (conclusion in words) (ROCK2): good inhibitory activity
pIC50 (ROCK2; 1 nM kinase, 20 μM Long S6 Kinase substrate peptide, 33P-ATP, 2 hours room temperature): 8.70
selectivity for ROCK2 (conclusion in words) (ROCK2; ROCK2 versus ROCK1): some selectivity
SMILES: COc1cccc([C@@H](CN)NC(=O)c2cc(-c3ccc4[nH]nc(C)c4c3)ccn2)c1 [Compound of formula (II)]
